Assay results published in patent US20100209345A1, “Fluorinated Ligands for Targeting Peripheral Benzodiazepine Receptors” (Australian Nuclear Science & Technology Organisation, priority 2006, published 2010).

How the values were obtained:
[1] = Biodistribution of 18F-labelled tracers in rats; type: in vivo
Experimental: [^18F]Fluoride, in the form of H^18F, was produced by the ^18O(p,n)^18F nuclear reaction by bombardment of ^18O-enriched water target. The aqueous [^18F]fluoride solution was added to a 2.5-mL wheaton vial containing dry acetonitrile (1 mL), Kryptofix 2.2.2 (5 mg, 13.3 μmol) and potassium carbonate (2 mg, 14.5 μmol). The solvent was evaporated under a stream of nitrogen at 90° C. with a reducing vacuum. This azeotropic drying was repeated twice by further addition of acetonitrile (2×1 mL). The tosylate precursor 2-(2-(4-(2-tosylethoxy)phenyl)-6-chloroimidazo[1,2-a]pyridin-3-yl)-N,N-diethylacetamide (2 mg, 3.6 μmol) was dissolved in acetonitrile (1 ml) and added to the dried K222.K2CO3.KF complex. Stirring and heating at 90° C. continued for 10 to 15 mins before the reaction mixture was diluted with mobile phase and purified by reverse phase HPLC on an Alltech Alltima, C18, 10μ, 250×22 mm column eluting at 10 mLs/min with 45% acetonitrile, 55% water with 0.1% TFA.
(§1) The biodistribution of PBR132* was undertaken in SD rats and analysis up to 4 h p.i. in the brain and peripheral tissues was performed. The specificity and selectivity of the tracer were assessed by pre-treatment with PBR and Central benzodiazepine receptor (CBR) specific ligands (1 mg/kg) 5 min prior to injection of PBR132*.
(§2) The biodistribution of PBR 147* was performed in SD rats and brain and peripheral tissues were analysised at 15, 30 min, 1, and 4 h p.i. The specificity and selectivity of the tracer was assessed by pre-treatment of the animals with the PBR ligands PK11195 and Ro 5-4864 and with Flumazenil for CBR at 1 mg/kg 5 min prior to injection of PBR 147*
(§3) The biodistribution of PBR102* and PBR111* were performed in SD rats and brain and peripheral tissues analysed at 15, 30 min, 1, and 4 h p.i. The specificity and selectivity of the tracers were assessed by pre-treatment with the PBR ligands PK11195 and Ro 5-4864 and with Flumazenil for CBR at 1 mg/kg 5 min prior to injection of the corresponding tracers.
(§4) The specificity and selectivity of the tracers were assessed by pre-treatment with the PBR ligands PK11195 and Ro 5-4864 and with Flumazenil for CBR at 1 mg/kg 5 min prior to injection of the corresponding tracers.

[2] = target: T1, peripheral benzodiazepine receptors (Rattus norvegicus, UniProt P16257); experiment: In vivo blocking / competition of tracer uptake by pre-treatment with PBR and CBR ligands; settings: rats
T1 construct: high uptake in the tissues which have known PBR sites; from tissue; host or cells: organs of living SD rats (brain and peripheral tissues), in vivo
Experimental: The criteria for significance were **p<0.01 (highly significant) and *p<0.05 (significant). No stars implies not statistical difference from normals or controls.
as §1, §2, §3, §4

[3] = SD rats, 15 min, decay correction not stated
[4] = SD rats, 4 hours, decay correction not stated
[5] = rats, 15 min, corrected for decay of 18F
[6] = rats, 30 min, corrected for decay of 18F
[7] = rats, 60 min, corrected for decay of 18F
[8] = rats, 4 hours, corrected for decay of 18F

CCN(CC)C(=O)Cc1c(-c2ccc(OCCCF)cc2)nn2c(C)cc(C)nc12 [PBR146*]
Biodistribution: Blood [1, 3]: 0.4 % ID/g | Biodistribution: Bone [1, 3]: 1.0 % ID/g | Biodistribution: Kidney [1, 3]: 5.5 % ID/g | Biodistribution: Olfactory bulbs [1, 3]: 0.41 % ID/g | Biodistribution: Adrenals ([1]; SD rats, 30 min, decay correction not stated): 7.9 % ID/g | Biodistribution: Adrenals [1, 4]: 12.2 % ID/g | Biodistribution: Blood [1, 4]: 0.1 % ID/g | Biodistribution: Bone [1, 4]: 5.0 % ID/g | Biodistribution: Kidney [1, 4]: 3.2 % ID/g | Biodistribution: Olfactory bulbs [1, 4]: 0.31 % ID/g | Biodistribution: Adrenals [1, 5]: 8.05 ± 0.66 % ID/g | Biodistribution: Bladder [1, 5]: 0.63 ± 0.14 % ID/g | Biodistribution: Blood [1, 5]: 0.38 ± 0.08 % ID/g | Biodistribution: Bone [1, 5]: 1.06 ± 0.17 % ID/g | Biodistribution: Brain [1, 5]: 0.27 ± 0.03 % ID/g | Biodistribution: Heart [1, 5]: 8.99 ± 0.69 % ID/g | Biodistribution: Kidney [1, 5]: 5.53 ± 1.20 % ID/g | Biodistribution: Liver [1, 5]: 1.08 ± 0.05 % ID/g | Biodistribution: Lungs [1, 5]: 20.42 ± 4.32 % ID/g | Biodistribution: Muscle [1, 5]: 1.10 ± 0.15 % ID/g | Biodistribution: Olfactory bulbs [1, 5]: 0.41 ± 0.10 % ID/g | Biodistribution: Pancreas [1, 5]: 2.20 ± 0.68 % ID/g | Biodistribution: Skin [1, 5]: 0.53 ± 0.11 % ID/g | Biodistribution: Spleen [1, 5]: 5.49 ± 0.90 % ID/g | Biodistribution: Stomach [1, 5]: 0.69 ± 0.12 % ID/g | Biodistribution: Testes [1, 5]: 0.269 ± 0.022 % ID/g | Biodistribution: Thymus [1, 5]: 0.80 ± 0.07 % ID/g | Biodistribution: Thyroid [1, 5]: 7.71 ± 2.92 % ID/g | Biodistribution: Adrenals [1, 6]: 7.94 ± 1.52 % ID/g | Biodistribution: Bladder [1, 6]: 0.71 ± 0.22 % ID/g | Biodistribution: Blood [1, 6]: 0.26 ± 0.03 % ID/g | Biodistribution: Bone [1, 6]: 1.46 ± 0.27 % ID/g | Biodistribution: Brain [1, 6]: 0.15 ± 0.02 % ID/g | Biodistribution: GIT [1, 6]: 1.25 ± 0.09 % ID/g | Biodistribution: Heart [1, 6]: 9.05 ± 0.51 % ID/g | Biodistribution: Kidney [1, 6]: 4.91 ± 0.21 % ID/g | Biodistribution: Liver [1, 6]: 0.98 ± 0.21 % ID/g | Biodistribution: Lungs [1, 6]: 12.36 ± 1.28 % ID/g | Biodistribution: Muscle [1, 6]: 0.82 ± 0.13 % ID/g | Biodistribution: Olfactory bulbs [1, 6]: 0.45 ± 0.07 % ID/g | Biodistribution: Pancreas [1, 6]: 1.59 ± 0.10 % ID/g | Biodistribution: Skin [1, 6]: 0.55 ± 0.05 % ID/g | Biodistribution: Spleen [1, 6]: 5.53 ± 0.36 % ID/g | Biodistribution: Stomach [1, 6]: 1.03 ± 0.16 % ID/g | Biodistribution: Testes [1, 6]: 0.285 ± 0.024 % ID/g | Biodistribution: Thymus [1, 6]: 0.84 ± 0.11 % ID/g | Biodistribution: Thyroid [1, 6]: 7.69 ± 2.21 % ID/g | Biodistribution: Adrenals [1, 7]: 11.02 ± 1.88 % ID/g | Biodistribution: Bladder [1, 7]: 0.89 ± 0.25 % ID/g | Biodistribution: Blood [1, 7]: 0.18 ± 0.02 % ID/g | Biodistribution: Bone [1, 7]: 2.07 ± 0.27 % ID/g | Biodistribution: Brain [1, 7]: 0.12 ± 0.01 % ID/g | Biodistribution: GIT [1, 7]: 1.51 ± 0.21 % ID/g | Biodistribution: Heart [1, 7]: 8.57 ± 1.01 % ID/g | Biodistribution: Kidney [1, 7]: 4.70 ± 0.24 % ID/g | Biodistribution: Liver [1, 7]: 0.69 ± 0.26 % ID/g | Biodistribution: Lungs [1, 7]: 7.12 ± 0.95 % ID/g | Biodistribution: Muscle [1, 7]: 0.67 ± 0.04 % ID/g | Biodistribution: Olfactory bulbs [1, 7]: 0.25 ± 0.06 % ID/g | Biodistribution: Pancreas [1, 7]: 1.41 ± 0.22 % ID/g | Biodistribution: Skin [1, 7]: 0.67 ± 0.06 % ID/g | Biodistribution: Spleen [1, 7]: 5.14 ± 0.38 % ID/g | Biodistribution: Stomach [1, 7]: 1.27 ± 0.45 % ID/g | Biodistribution: Testes [1, 7]: 0.319 ± 0.028 % ID/g | Biodistribution: Thymus [1, 7]: 0.96 ± 0.17 % ID/g | Biodistribution: Thyroid [1, 7]: 13.37 ± 0.46 % ID/g | Biodistribution: Adrenals [1, 8]: 12.21 ± 1.56 % ID/g | Biodistribution: Bladder [1, 8]: 1.26 ± 0.16 % ID/g | Biodistribution: Blood [1, 8]: 0.10 ± 0.01 % ID/g | Biodistribution: Bone [1, 8]: 4.12 ± 0.23 % ID/g | Biodistribution: Brain [1, 8]: 0.08 ± 0.01 % ID/g | Biodistribution: GIT [1, 8]: 1.54 ± 0.11 % ID/g | Biodistribution: Heart [1, 8]: 5.76 ± 0.92 % ID/g | Biodistribution: Kidney [1, 8]: 3.23 ± 0.26 % ID/g | Biodistribution: Liver [1, 8]: 0.38 ± 0.09 % ID/g | Biodistribution: Lungs [1, 8]: 3.25 ± 0.21 % ID/g | Biodistribution: Muscle [1, 8]: 0.31 ± 0.06 % ID/g | Biodistribution: Olfactory bulbs [1, 8]: 0.31 ± 0.08 % ID/g | Biodistribution: Pancreas [1, 8]: 0.77 ± 0.16 % ID/g | Biodistribution: Skin [1, 8]: 0.71 ± 0.07 % ID/g | Biodistribution: Spleen [1, 8]: 3.61 ± 0.19 % ID/g | Biodistribution: Stomach [1, 8]: 0.34 ± 0.04 % ID/g | Biodistribution: Testes [1, 8]: 0.426 ± 0.043 % ID/g | Biodistribution: Thymus [1, 8]: 1.35 ± 0.15 % ID/g | Biodistribution: Thyroid [1, 8]: 10.68 ± 1.44 % ID/g

CN(C(=O)Cc1c(-c2ccc(OCCC[18F])cc2)nc2c(Cl)cc(Cl)cn12)c1ccccc1 [PBR147*, 2-(2-(4-(3-fluoropropoxy)phenyl)-6,8-dichloroimidazo[1,2-a]pyridin-3-yl)-N-methyl-N-phenylacetamide]
Tracer uptake after pre-treatment with PK 11195 ([2]; PK 11195 1 mg/kg 5 min prior to tracer, PBR-expressing tissues (brain/peripheral organs, adrenals apart)): blocking effect | Tracer uptake after pre-treatment with Ro 5-4864 ([2]; Ro 5-4864 1 mg/kg 5 min prior to tracer, PBR-expressing tissues (brain/peripheral organs, adrenals apart)): blocking effect | Tracer uptake after pre-treatment with flumazenil (central benzodiazepine ligand) ([2]; flumazenil 1 mg/kg 5 min prior to tracer, brain or peripheral organs): does not reduce | Tracer uptake after pre-treatment with the non-radioactive analogue ([2]; non-radioactive analogue 1 mg/kg, PBR-expressing tissues): blocking effect
